Experimental data published in PubChem BioAssay (NCI).
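Where inhibition never reached the appropriate level, the endpoint shown equals the highest concentration tested. Otherwise, values were interpolated linearly from a five-concentration, 48-hour dose response in 96-well plates. GI50 = concentration required for 50% inhibition of growth. TGI denotes the concentration required for complete inhibition of growth.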

Experiments:
Test in all cases: NCI-60 cell line screen, 48 h
786-0 renal = tested on: 786-0 renal
A498 renal = tested on: A498 renal
A549 NSCLC = tested on: A549 NSCLC
ACHN renal = tested on: ACHN renal
BT-549 breast = tested on: BT-549 breast
CAKI-1 renal = tested on: CAKI-1 renal
COLO 205 colon = tested on: COLO 205 colon
DU-145 prostate = tested on: DU-145 prostate
EKVX NSCLC = tested on: EKVX NSCLC
HCT-116 colon = tested on: HCT-116 colon
HCT-15 colon = tested on: HCT-15 colon
HL-60(TB) leukemia = tested on: HL-60(TB) leukemia
HOP-62 NSCLC = tested on: HOP-62 NSCLC
HOP-92 NSCLC = tested on: HOP-92 NSCLC
HS 578T breast = tested on: HS 578T breast
HT29 colon = tested on: HT29 colon
IGROV1 ovarian = tested on: IGROV1 ovarian
K-562 leukemia = tested on: K-562 leukemia
KM12 colon = tested on: KM12 colon
M14 melanoma = tested on: M14 melanoma
MALME-3M melanoma = tested on: MALME-3M melanoma
MCF7 breast = tested on: MCF7 breast
MDA-MB-231 breast = tested on: MDA-MB-231 breast
MDA-MB-435 = tested on: MDA-MB-435
NCI-H226 lung = tested on: NCI-H226 lung
NCI-H23 lung = tested on: NCI-H23 lung
NCI-H460 lung = tested on: NCI-H460 lung
NCI-H522 lung = tested on: NCI-H522 lung
NCI/ADR-RES ovarian = tested on: NCI/ADR-RES ovarian
OVCAR-3 ovarian = tested on: OVCAR-3 ovarian
OVCAR-4 ovarian = tested on: OVCAR-4 ovarian
OVCAR-5 ovarian = tested on: OVCAR-5 ovarian
OVCAR-8 ovarian = tested on: OVCAR-8 ovarian
PC-3 prostate = tested on: PC-3 prostate
SF-268 CNS = tested on: SF-268 CNS
SF-295 CNS = tested on: SF-295 CNS
SF-539 CNS = tested on: SF-539 CNS
SK-MEL-2 melanoma = tested on: SK-MEL-2 melanoma
SK-MEL-28 melanoma = tested on: SK-MEL-28 melanoma
SK-MEL-5 melanoma = tested on: SK-MEL-5 melanoma
SK-OV-3 ovarian = tested on: SK-OV-3 ovarian
SN12C renal = tested on: SN12C renal
SNB-19 CNS = tested on: SNB-19 CNS
SNB-75 CNS = tested on: SNB-75 CNS
SW-620 colon = tested on: SW-620 colon
T-47D breast = tested on: T-47D breast
TK-10 renal = tested on: TK-10 renal
U251 CNS = tested on: U251 CNS
UACC-257 melanoma = tested on: UACC-257 melanoma
UACC-62 melanoma = tested on: UACC-62 melanoma
UO-31 renal = tested on: UO-31 renal
MOLT-4 leukemia = tested on: MOLT-4 leukemia

## CC(C)(C)OC(=O)NCCNC1=CC(=O)c2nc3ccccc3c3ccnc1c23
786-0 renal
  GI50: 28.5 µM
  TGI: > 100 µM
A498 renal
  GI50: 0.101 µM
  TGI: 29.2 µM
A549 NSCLC
  GI50: 18.4 µM
  TGI: > 100 µM
ACHN renal
  GI50: 21.5 µM
  TGI: 76.8 µM
BT-549 breast
  GI50: 20.5 µM
  TGI: 51.7 µM
CAKI-1 renal
  GI50: 28.4 µM
  TGI: 72.3 µM
COLO 205 colon
  GI50: 12.7 µM
  TGI: 34.7 µM
DU-145 prostate
  GI50: 22.7 µM
  TGI: 80.9 µM
EKVX NSCLC
  GI50: 41.4 µM
  TGI: > 100 µM
HCT-116 colon
  GI50: 22.3 µM
  TGI: > 100 µM
HCT-15 colon
  GI50: 19.3 µM
  TGI: 47.9 µM
HL-60(TB) leukemia
  GI50: 12.2 µM
  TGI: > 100 µM
HOP-62 NSCLC
  GI50: 24.4 µM
  TGI: > 100 µM
HOP-92 NSCLC
  GI50: 17.9 µM
  TGI: 42.5 µM
HS 578T breast
  GI50: 25.5 µM
  TGI: 73.8 µM
HT29 colon
  GI50: 17.9 µM
  TGI: 43.8 µM
IGROV1 ovarian
  GI50: 24.6 µM
  TGI: 77.3 µM
K-562 leukemia
  GI50: 0.131 µM
  TGI: > 100 µM
KM12 colon
  GI50: 22.7 µM
  TGI: 66.6 µM
M14 melanoma
  GI50: 18.5 µM
  TGI: 61.1 µM
MALME-3M melanoma
  GI50: 32 µM
  TGI: 81.8 µM
MCF7 breast
  GI50: 7.42 µM
  TGI: 24.4 µM
MDA-MB-231 breast
  GI50: 18.4 µM
  TGI: 58.6 µM
MDA-MB-435
  GI50: 15.7 µM
  TGI: 37.7 µM
NCI-H226 lung
  GI50: 21.1 µM
  TGI: 52.8 µM
NCI-H23 lung
  GI50: 17.1 µM
  TGI: 46.8 µM
NCI-H460 lung
  GI50: 15.2 µM
  TGI: 43.1 µM
NCI-H522 lung
  GI50: 18.3 µM
  TGI: 44.8 µM
NCI/ADR-RES ovarian
  GI50: 23.3 µM
  TGI: 74.5 µM
OVCAR-3 ovarian
  GI50: 13.8 µM
  TGI: 67 µM
OVCAR-4 ovarian
  GI50: 24.3 µM
  TGI: 67.6 µM
OVCAR-5 ovarian
  GI50: 28 µM
  TGI: 86.1 µM
OVCAR-8 ovarian
  GI50: 16.6 µM
  TGI: > 100 µM
PC-3 prostate
  GI50: 15.1 µM
  TGI: 49.2 µM
SF-268 CNS
  GI50: 18.7 µM
  TGI: 77.1 µM
SF-295 CNS
  GI50: 18.2 µM
  TGI: 40 µM
SF-539 CNS
  GI50: 20.2 µM
  TGI: 40.5 µM
SK-MEL-2 melanoma
  GI50: 28.4 µM
  TGI: 85.1 µM
SK-MEL-28 melanoma
  GI50: 13.3 µM
  TGI: 28.9 µM
SK-MEL-5 melanoma
  GI50: 11.1 µM
  TGI: 23.1 µM
SK-OV-3 ovarian
  GI50: 43.3 µM
  TGI: > 100 µM
SN12C renal
  GI50: 17.7 µM
  TGI: 55.6 µM
SNB-19 CNS
  GI50: 22.7 µM
  TGI: 83.7 µM
SNB-75 CNS
  GI50: 17.8 µM
  TGI: 42.6 µM
SW-620 colon
  GI50: 15.1 µM
  TGI: 37.4 µM
T-47D breast
  GI50: 25.8 µM
  TGI: > 100 µM
TK-10 renal
  GI50: 32.4 µM
  TGI: 99.7 µM
U251 CNS
  GI50: 18.8 µM
  TGI: 65 µM
UACC-257 melanoma
  GI50: 23.5 µM
  TGI: 75.5 µM
UACC-62 melanoma
  GI50: 19.6 µM
  TGI: 43.2 µM
UO-31 renal
  GI50: 28.8 µM
  TGI: > 100 µM

## c1ccc(C2=NOC3(c4ccccc4)CC(c4cccs4)Sc4ccccc4N23)cc1 (centres undefined)
HCT-116 colon
  GI50: 28.2 µM
HT29 colon
  GI50: 65.5 µM
K-562 leukemia
  GI50: 23.6 µM
MOLT-4 leukemia
  GI50: 8.75 µM
OVCAR-5 ovarian
  GI50: 35.1 µM
U251 CNS
  GI50: 7.58 µM
UO-31 renal
  GI50: 89.1 µM
